Measured values published in US7884136B2, “Modified-release formulations of a bupropion salt” (Biovail Laboratories International S.R.L., priority 2005, dated 2011).

Test: Shelf life stability program of bupropion HBr, 25° C./60% RH, 3 and 6 months, HPLC
Assay type: physicochemical
Details: 25° C., R.H. 60%; for Chromatographic purity B) (HPLC) 4) 2-N-(tert-Butyl)-aminopropiophenone / Chromatographic purity B) (HPLC) 5) single unknown impurity (each): LOQ 0.02%, LOD 0.002%; for Chromatographic purity A) (HPLC) 1) 3′-Chloropropiophenone / Chromatographic purity A) (HPLC) 3) 3′-Chlorobenzoic acid / Chromatographic purity A) (HPLC) 2) 3′-Chloro-2-bromopropiophenone: LOQ 0.05%; for Chromatographic purity A) (HPLC) 1) 3′-Chloropropiophenone / Chromatographic purity A) (HPLC) 3) 3′-Chlorobenzoic acid: LOD 0.01%; for Chromatographic purity A) (HPLC) 2) 3′-Chloro-2-bromopropiophenone: LOD 0.04%
Experimental: The stability of bupropion HBr was studied over a longer term under conditions meant to approximate standard storage or shelf conditions. Samples were prepared in closed containers and subjected to long-term storage at 25° C.+2° C. and 60%+5% RH in a stability chamber. The samples were analyzed by HPLC prior to being placed in the stability chamber (time 0) and after 3 months and 6 months. The amounts of the main degradation products present at time 0 were compared with the amounts present at 3 months and 6 months. As shown in Table 77-79 three different batches of bupropion HBr were tested. As in Example 10 each sample was tested under two HPLC assay conditions to identify 6 impurities or groups of impurities as described in Example 10.

Br.CC(NC(C)(C)C)C(=O)c1cccc(Cl)c1 (stereo not drawn) [Bupropion•HBr]
2) n.d.: Chromatographic purity A) (HPLC) 2) 3′-Chloro-2-bromopropiophenone (Batch D00894, 12 months) | Chromatographic purity A) (HPLC) 2) 3′-Chloro-2-bromopropiophenone (Batch D00894, time 0) | Chromatographic purity A) (HPLC) 2) 3′-Chloro-2-bromopropiophenone (Batch D00895, 3 months) | Chromatographic purity A) (HPLC) 2) 3′-Chloro-2-bromopropiophenone (Batch D00895, 6 months) | Chromatographic purity A) (HPLC) 2) 3′-Chloro-2-bromopropiophenone (Batch D00895, 9 months) | Chromatographic purity A) (HPLC) 2) 3′-Chloro-2-bromopropiophenone (Batch D00895, 12 months) | Chromatographic purity A) (HPLC) 2) 3′-Chloro-2-bromopropiophenone (Batch D00895, time 0) | Chromatographic purity A) (HPLC) 2) 3′-Chloro-2-bromopropiophenone (Batch D00896, 3 months) | Chromatographic purity A) (HPLC) 2) 3′-Chloro-2-bromopropiophenone (Batch D00896, 6 months) | Chromatographic purity A) (HPLC) 2) 3′-Chloro-2-bromopropiophenone (Batch D00896, 9 months) | Chromatographic purity A) (HPLC) 2) 3′-Chloro-2-bromopropiophenone (Batch D00896, 12 months) | Chromatographic purity A) (HPLC) 2) 3′-Chloro-2-bromopropiophenone (Batch D00896, time 0)
1) n.q.: Chromatographic purity A) (HPLC) 1) 3′-Chloropropiophenone (Batch D00895, 3 months) | Chromatographic purity A) (HPLC) 1) 3′-Chloropropiophenone (Batch D00895, 9 months) | Chromatographic purity A) (HPLC) 1) 3′-Chloropropiophenone (Batch D00896, 3 months) | Chromatographic purity A) (HPLC) 1) 3′-Chloropropiophenone (Batch D00896, 9 months)
3) n.q.: Chromatographic purity A) (HPLC) 3) 3′-Chlorobenzoic acid (Batch D00894, time 0) | Chromatographic purity A) (HPLC) 3) 3′-Chlorobenzoic acid (Batch D00895, 3 months) | Chromatographic purity A) (HPLC) 3) 3′-Chlorobenzoic acid (Batch D00895, 6 months) | Chromatographic purity A) (HPLC) 3) 3′-Chlorobenzoic acid (Batch D00895, 9 months) | Chromatographic purity A) (HPLC) 3) 3′-Chlorobenzoic acid (Batch D00895, time 0) | Chromatographic purity A) (HPLC) 3) 3′-Chlorobenzoic acid (Batch D00896, 3 months) | Chromatographic purity A) (HPLC) 3) 3′-Chlorobenzoic acid (Batch D00896, 6 months) | Chromatographic purity A) (HPLC) 3) 3′-Chlorobenzoic acid (Batch D00896, 9 months) | Chromatographic purity A) (HPLC) 3) 3′-Chlorobenzoic acid (Batch D00896, 12 months) | Chromatographic purity A) (HPLC) 3) 3′-Chlorobenzoic acid (Batch D00896, time 0)
0.06%: Water content (K.F.) (Batch D00896, time 0)
4) 0.05%: Chromatographic purity B) (HPLC) 4) 2-N-(tert-Butyl)-aminopropiophenone (Batch D00894, 12 months) | Chromatographic purity B) (HPLC) 4) 2-N-(tert-Butyl)-aminopropiophenone (Batch D00895, 6 months) | Chromatographic purity B) (HPLC) 4) 2-N-(tert-Butyl)-aminopropiophenone (Batch D00895, 12 months) | Chromatographic purity B) (HPLC) 4) 2-N-(tert-Butyl)-aminopropiophenone (Batch D00896, 12 months)
5) 0.04%: Chromatographic purity B) (HPLC) 5) single unknown impurity (each) (Batch D00894, time 0) | Chromatographic purity B) (HPLC) 5) single unknown impurity (each) (Batch D00895, 3 months) | Chromatographic purity B) (HPLC) 5) single unknown impurity (each) (Batch D00895, time 0) | Chromatographic purity B) (HPLC) 5) single unknown impurity (each) (Batch D00896, 3 months)
3) 0.05%: Chromatographic purity A) (HPLC) 3) 3′-Chlorobenzoic acid (Batch D00894, 12 months) | Chromatographic purity A) (HPLC) 3) 3′-Chlorobenzoic acid (Batch D00895, 12 months)
0.1%: Chromatographic purity (HPLC: A + B) Total impurities (Batch D00894, time 0) | Chromatographic purity (HPLC: A + B) Total impurities (Batch D00895, 3 months) | Chromatographic purity (HPLC: A + B) Total impurities (Batch D00895, 6 months) | Chromatographic purity (HPLC: A + B) Total impurities (Batch D00895, time 0) | Chromatographic purity (HPLC: A + B) Total impurities (Batch D00896, 3 months) | Chromatographic purity (HPLC: A + B) Total impurities (Batch D00896, 6 months) | Chromatographic purity (HPLC: A + B) Total impurities (Batch D00896, 12 months) | Chromatographic purity (HPLC: A + B) Total impurities (Batch D00896, time 0)
0.03%: Water content (K.F.) (Batch D00896, 12 months)
0.05%: Water content (K.F.) (Batch D00894, 12 months) | Water content (K.F.) (Batch D00894, time 0) | Water content (K.F.) (Batch D00895, 6 months) | Water content (K.F.) (Batch D00895, 9 months)
99.6 % on d.b.: Assay (HPLC) (Batch D00894, 12 months) | Assay (HPLC) (Batch D00894, time 0)
5) 0.07%: Chromatographic purity B) (HPLC) 5) single unknown impurity (each) (Batch D00895, 12 months) | Chromatographic purity B) (HPLC) 5) single unknown impurity (each) (Batch D00896, 12 months)
6) 0.05%: Chromatographic purity B) (HPLC) 6) total unknown impurities (Batch D00895, 3 months) | Chromatographic purity B) (HPLC) 6) total unknown impurities (Batch D00896, 3 months) | Chromatographic purity B) (HPLC) 6) total unknown impurities (Batch D00896, time 0)
6) 0.02%: Chromatographic purity B) (HPLC) 6) total unknown impurities (Batch D00895, 6 months)
4) n.d.: Chromatographic purity B) (HPLC) 4) 2-N-(tert-Butyl)-aminopropiophenone (Batch D00895, 9 months) | Chromatographic purity B) (HPLC) 4) 2-N-(tert-Butyl)-aminopropiophenone (Batch D00896, 9 months)
99.3 % on d.b.: Assay (HPLC) (Batch D00896, time 0)
99.2 % on d.b.: Assay (HPLC) (Batch D00895, time 0)
4) 0.04%: Chromatographic purity B) (HPLC) 4) 2-N-(tert-Butyl)-aminopropiophenone (Batch D00894, time 0) | Chromatographic purity B) (HPLC) 4) 2-N-(tert-Butyl)-aminopropiophenone (Batch D00895, time 0) | Chromatographic purity B) (HPLC) 4) 2-N-(tert-Butyl)-aminopropiophenone (Batch D00896, 6 months) | Chromatographic purity B) (HPLC) 4) 2-N-(tert-Butyl)-aminopropiophenone (Batch D00896, time 0)
0.04%: Water content (K.F.) (Batch D00895, 3 months) | Water content (K.F.) (Batch D00895, 12 months) | Water content (K.F.) (Batch D00895, time 0) | Water content (K.F.) (Batch D00896, 3 months) | Water content (K.F.) (Batch D00896, 6 months) | Water content (K.F.) (Batch D00896, 9 months)
6) n.q.: Chromatographic purity B) (HPLC) 6) total unknown impurities (Batch D00895, 9 months) | Chromatographic purity B) (HPLC) 6) total unknown impurities (Batch D00896, 6 months) | Chromatographic purity B) (HPLC) 6) total unknown impurities (Batch D00896, 9 months)
100.3 % on d.b.: Assay (HPLC) (Batch D00896, 12 months)
1) n.d.: Chromatographic purity A) (HPLC) 1) 3′-Chloropropiophenone (Batch D00894, 12 months) | Chromatographic purity A) (HPLC) 1) 3′-Chloropropiophenone (Batch D00894, time 0) | Chromatographic purity A) (HPLC) 1) 3′-Chloropropiophenone (Batch D00895, 12 months) | Chromatographic purity A) (HPLC) 1) 3′-Chloropropiophenone (Batch D00895, time 0) | Chromatographic purity A) (HPLC) 1) 3′-Chloropropiophenone (Batch D00896, 12 months) | Chromatographic purity A) (HPLC) 1) 3′-Chloropropiophenone (Batch D00896, time 0)
n.q.: Chromatographic purity (HPLC: A + B) Total impurities (Batch D00895, 9 months) | Chromatographic purity (HPLC: A + B) Total impurities (Batch D00896, 9 months)
positive: Identification IR, HPLC (Batch D00894, 12 months) | Identification IR, HPLC (Batch D00894, time 0) | Identification IR, HPLC (Batch D00895, 3 months) | Identification IR, HPLC (Batch D00895, 6 months) | Identification IR, HPLC (Batch D00895, 9 months) | Identification IR, HPLC (Batch D00895, 12 months) | Identification IR, HPLC (Batch D00895, time 0) | Identification IR, HPLC (Batch D00896, 3 months) | Identification IR, HPLC (Batch D00896, 6 months) | Identification IR, HPLC (Batch D00896, 9 months) | Identification IR, HPLC (Batch D00896, 12 months) | Identification IR, HPLC (Batch D00896, time 0)
5) 0.05%: Chromatographic purity B) (HPLC) 5) single unknown impurity (each) (Batch D00894, 12 months) | Chromatographic purity B) (HPLC) 5) single unknown impurity (each) (Batch D00896, time 0)
5) n.q.: Chromatographic purity B) (HPLC) 5) single unknown impurity (each) (Batch D00895, 6 months) | Chromatographic purity B) (HPLC) 5) single unknown impurity (each) (Batch D00895, 9 months) | Chromatographic purity B) (HPLC) 5) single unknown impurity (each) (Batch D00896, 6 months) | Chromatographic purity B) (HPLC) 5) single unknown impurity (each) (Batch D00896, 9 months)
6) 0.07%: Chromatographic purity B) (HPLC) 6) total unknown impurities (Batch D00894, 12 months) | Chromatographic purity B) (HPLC) 6) total unknown impurities (Batch D00895, 12 months) | Chromatographic purity B) (HPLC) 6) total unknown impurities (Batch D00896, 12 months)
99.5 % on d.b.: Assay (HPLC) (Batch D00895, 3 months)
100.1 % on d.b.: Assay (HPLC) (Batch D00895, 6 months)
conform: Description (white or almost white crystalline powder) (Batch D00894, 12 months) | Description (white or almost white crystalline powder) (Batch D00894, time 0) | Description (white or almost white crystalline powder) (Batch D00895, 3 months) | Description (white or almost white crystalline powder) (Batch D00895, 6 months) | Description (white or almost white crystalline powder) (Batch D00895, 9 months) | Description (white or almost white crystalline powder) (Batch D00895, 12 months) | Description (white or almost white crystalline powder) (Batch D00895, time 0) | Description (white or almost white crystalline powder) (Batch D00896, 3 months) | Description (white or almost white crystalline powder) (Batch D00896, 6 months) | Description (white or almost white crystalline powder) (Batch D00896, 9 months) | Description (white or almost white crystalline powder) (Batch D00896, 12 months) | Description (white or almost white crystalline powder) (Batch D00896, time 0)
1) 0.05%: Chromatographic purity A) (HPLC) 1) 3′-Chloropropiophenone (Batch D00895, 6 months) | Chromatographic purity A) (HPLC) 1) 3′-Chloropropiophenone (Batch D00896, 6 months)
4) 0.03%: Chromatographic purity B) (HPLC) 4) 2-N-(tert-Butyl)-aminopropiophenone (Batch D00895, 3 months) | Chromatographic purity B) (HPLC) 4) 2-N-(tert-Butyl)-aminopropiophenone (Batch D00896, 3 months)
6) 0.04%: Chromatographic purity B) (HPLC) 6) total unknown impurities (Batch D00894, time 0) | Chromatographic purity B) (HPLC) 6) total unknown impurities (Batch D00895, time 0)
99.4 % on d.b.: Assay (HPLC) (Batch D00895, 9 months) | Assay (HPLC) (Batch D00895, 12 months) | Assay (HPLC) (Batch D00896, 3 months) | Assay (HPLC) (Batch D00896, 9 months)
0.2%: Chromatographic purity (HPLC: A + B) Total impurities (Batch D00894, 12 months) | Chromatographic purity (HPLC: A + B) Total impurities (Batch D00895, 12 months)
100.5 % on d.b.: Assay (HPLC) (Batch D00896, 6 months)
